Here are results for 15 compounds from ChEMBL document CHEMBL5291721, “A preclinical secondary pharmacology resource illuminates target-adverse drug reaction associations of marketed drugs” (Nat Commun, 2023).

The target in assay [1] is Beta-1 adrenergic receptor (Homo sapiens, UniProt P08588). In kind it is functional.
The target in another assay is T1, B2 bradykinin receptor (Homo sapiens, UniProt P30411).
T1 sequence (P30411 whole entry): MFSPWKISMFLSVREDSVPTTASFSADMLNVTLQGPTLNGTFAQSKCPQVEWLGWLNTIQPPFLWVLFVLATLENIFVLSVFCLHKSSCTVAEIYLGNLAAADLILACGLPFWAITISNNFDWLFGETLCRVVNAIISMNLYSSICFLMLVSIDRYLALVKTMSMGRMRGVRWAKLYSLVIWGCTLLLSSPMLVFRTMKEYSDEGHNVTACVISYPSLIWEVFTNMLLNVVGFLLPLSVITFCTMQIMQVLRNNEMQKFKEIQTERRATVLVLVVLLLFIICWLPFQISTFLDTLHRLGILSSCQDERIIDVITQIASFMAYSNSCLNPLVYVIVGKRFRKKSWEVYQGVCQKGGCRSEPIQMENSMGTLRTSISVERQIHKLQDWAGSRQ

Assay [2] addresses T2, Alpha-2A adrenergic receptor (Homo sapiens, UniProt P08913).
T2 sequence (P08913 whole entry): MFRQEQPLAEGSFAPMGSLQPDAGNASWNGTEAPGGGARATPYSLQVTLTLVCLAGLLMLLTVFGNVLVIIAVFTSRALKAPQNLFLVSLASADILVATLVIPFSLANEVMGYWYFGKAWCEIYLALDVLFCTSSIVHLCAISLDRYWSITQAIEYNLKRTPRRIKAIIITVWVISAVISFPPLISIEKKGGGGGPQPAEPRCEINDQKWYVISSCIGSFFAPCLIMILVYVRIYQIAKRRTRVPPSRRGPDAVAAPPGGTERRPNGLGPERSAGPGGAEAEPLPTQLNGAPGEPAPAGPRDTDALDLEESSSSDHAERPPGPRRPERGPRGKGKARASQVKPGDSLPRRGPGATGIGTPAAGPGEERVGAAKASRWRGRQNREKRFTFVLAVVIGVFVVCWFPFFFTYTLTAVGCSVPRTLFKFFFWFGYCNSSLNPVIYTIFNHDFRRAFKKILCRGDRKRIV
In kind it is functional, cell-based.

Another assay has as its target T3, Adenosine receptor A1 (Homo sapiens, UniProt P30542).
T3 sequence (P30542 whole entry): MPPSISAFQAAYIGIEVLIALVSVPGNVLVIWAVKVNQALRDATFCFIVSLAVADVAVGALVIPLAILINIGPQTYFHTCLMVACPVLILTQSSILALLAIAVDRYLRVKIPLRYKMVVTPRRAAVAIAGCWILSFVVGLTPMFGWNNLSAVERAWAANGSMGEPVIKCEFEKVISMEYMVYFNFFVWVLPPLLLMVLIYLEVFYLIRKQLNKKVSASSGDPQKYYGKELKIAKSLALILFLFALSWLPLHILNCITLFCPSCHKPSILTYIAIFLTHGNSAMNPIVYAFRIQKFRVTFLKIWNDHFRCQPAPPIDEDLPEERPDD

The target in the next assay is T4, Thromboxane A2 receptor (Homo sapiens, UniProt P21731).
T4 sequence (P21731 whole entry): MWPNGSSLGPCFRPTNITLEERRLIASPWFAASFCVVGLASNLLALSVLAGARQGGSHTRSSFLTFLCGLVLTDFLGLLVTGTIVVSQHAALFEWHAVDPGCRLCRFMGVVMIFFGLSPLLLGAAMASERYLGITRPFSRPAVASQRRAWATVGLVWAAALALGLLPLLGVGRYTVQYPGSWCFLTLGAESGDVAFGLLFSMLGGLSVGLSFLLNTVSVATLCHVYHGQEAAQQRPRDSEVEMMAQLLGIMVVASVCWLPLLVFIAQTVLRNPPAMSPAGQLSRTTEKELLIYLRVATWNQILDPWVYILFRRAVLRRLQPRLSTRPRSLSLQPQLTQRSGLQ

Assay [3] deals with T5, Prostaglandin G/H synthase 1 (Rattus norvegicus, UniProt Q63921).
T5 sequence (Q63921 whole entry): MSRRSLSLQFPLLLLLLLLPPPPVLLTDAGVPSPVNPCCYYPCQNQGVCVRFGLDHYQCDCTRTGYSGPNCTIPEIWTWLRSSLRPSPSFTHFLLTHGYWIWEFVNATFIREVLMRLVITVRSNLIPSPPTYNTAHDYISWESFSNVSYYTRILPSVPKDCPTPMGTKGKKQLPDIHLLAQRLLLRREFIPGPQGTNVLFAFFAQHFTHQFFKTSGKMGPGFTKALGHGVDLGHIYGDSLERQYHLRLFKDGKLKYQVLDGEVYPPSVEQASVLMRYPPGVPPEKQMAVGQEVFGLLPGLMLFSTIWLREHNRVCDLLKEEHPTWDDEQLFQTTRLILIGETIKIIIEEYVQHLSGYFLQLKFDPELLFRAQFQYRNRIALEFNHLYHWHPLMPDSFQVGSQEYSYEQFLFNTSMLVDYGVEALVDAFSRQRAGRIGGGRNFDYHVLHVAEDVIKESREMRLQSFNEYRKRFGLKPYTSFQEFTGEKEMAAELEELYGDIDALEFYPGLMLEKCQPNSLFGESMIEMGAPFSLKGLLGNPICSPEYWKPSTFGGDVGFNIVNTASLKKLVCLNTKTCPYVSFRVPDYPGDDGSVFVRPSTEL
The class given is functional.
Also: assay procedure not described here.

Sequence of Beta-1 adrenergic receptor (P08588 whole entry): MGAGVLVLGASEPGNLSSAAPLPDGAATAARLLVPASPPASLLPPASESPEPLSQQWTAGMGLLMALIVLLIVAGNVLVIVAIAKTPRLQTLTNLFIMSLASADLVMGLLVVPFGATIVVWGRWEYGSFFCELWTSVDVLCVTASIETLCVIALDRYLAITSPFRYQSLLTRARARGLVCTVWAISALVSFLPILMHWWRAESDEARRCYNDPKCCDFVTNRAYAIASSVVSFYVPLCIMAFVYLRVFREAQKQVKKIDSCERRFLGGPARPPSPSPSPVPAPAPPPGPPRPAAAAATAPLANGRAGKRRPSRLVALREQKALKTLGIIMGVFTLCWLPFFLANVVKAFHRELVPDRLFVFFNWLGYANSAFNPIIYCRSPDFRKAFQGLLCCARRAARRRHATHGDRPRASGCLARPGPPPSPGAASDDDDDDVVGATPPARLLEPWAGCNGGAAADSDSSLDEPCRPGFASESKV

Turning to `COc1ccc2c(c1)[C@]13CCCC[C@@H]1[C@H](C2)N(C)CC3` [DEXTROMETHORPHAN], the AC50 was over 10 µM in assay [1]; over 30 µM on B2 bradykinin receptor; over 10 µM in assay [2]; over 30 µM at Adenosine receptor A1; over 30 µM on Thromboxane A2 receptor; over 30 µM in assay [3].
For the compound `O=c1oc2ccccc2c(O)c1Cc1c(O)c2ccccc2oc1=O` [DICUMAROL], the AC50 was over 10 µM in assay [1]; over 10 µM on B2 bradykinin receptor; over 10 µM in assay [2]; over 10 µM on Adenosine receptor A1; over 10 µM on Thromboxane A2 receptor; over 30 µM in assay [3].
For the compound `CCn1cc(C(=O)O)c(=O)c2cc(F)c(N3CCNCC3)nc21` [ENOXACIN], the half-maximal activity concentration (AC50) was over 10 µM in assay [1]; over 30 µM at B2 bradykinin receptor; over 10 µM in assay [2]; over 30 µM at Adenosine receptor A1; 6.06 µM at Thromboxane A2 receptor; over 30 µM in assay [3].
With `O=C(O)CSCC(=O)NC1CCSC1=O` (stereo not given) [ERDOSTEINE], the concentration at half-maximal activity (AC50) (in assay [1]; at B2 bradykinin receptor; in assay [2]; on Adenosine receptor A1; at Thromboxane A2 receptor; in assay [3]) was over 30 µM each time.
Consider `COc1cccc(N(C)C(=S)Oc2ccc3c(c2)CCCC3)n1` [LIRANAFTATE], for which the concentration at half-maximal activity (AC50) (in assay [1]; on B2 bradykinin receptor; in assay [2]; on Adenosine receptor A1; on Thromboxane A2 receptor; in assay [3]) was over 30 µM each time.
Regarding `C#C[C@]1(O)CC[C@H]2[C@@H]3CCc4cc(OC)ccc4[C@H]3CC[C@@]21C` [MESTRANOL], the AC50 is over 10 µM in assay [1]; over 10 µM on B2 bradykinin receptor; over 10 µM in assay [2]; over 30 µM on Adenosine receptor A1; over 10 µM at Thromboxane A2 receptor; over 10 µM in assay [3].
For `N=C(N)c1ccc2cc(OC(=O)c3ccc(N=C(N)N)cc3)ccc2c1` [NAFAMOSTAT], the half-maximal activity concentration (AC50) (in assay [1]; at B2 bradykinin receptor; in assay [2]; on Adenosine receptor A1; on Thromboxane A2 receptor; in assay [3]) was over 30 µM throughout.
`CNC(=O)Oc1ccc2c(c1)[C@]1(C)CCN(C)[C@@H]1N2C` [PHYSOSTIGMINE]: the AC50 (in assay [1]; on B2 bradykinin receptor; in assay [2]; at Adenosine receptor A1; on Thromboxane A2 receptor; in assay [3]) was over 30 µM in each case.
Consider `O=C(O)c1cc(O)c2c3nc4ccccc4oc-3cc(=O)c2n1` [PIRENOXINE], for which the AC50 (in assay [1]; at B2 bradykinin receptor; in assay [2]; at Adenosine receptor A1; at Thromboxane A2 receptor; in assay [3]) was over 30 µM each time.
On to `NS(=O)(=O)c1cc(C(=O)O)cc(N2CCCC2)c1Oc1ccccc1` [PIRETANIDE], for which the AC50 (in assay [1]; at B2 bradykinin receptor; in assay [2]; on Adenosine receptor A1; on Thromboxane A2 receptor; in assay [3]) was over 30 µM in each case.
In the case of `COCCCOc1ccnc(C[S+]([O-])c2nc3ccccc3[nH]2)c1C` (stereo not given) [RABEPRAZOLE], the concentration at half-maximal activity (AC50) in assay [1] was over 10 µM; at B2 bradykinin receptor, over 30 µM; in assay [2], over 10 µM; on Adenosine receptor A1, 22.5 µM; at Thromboxane A2 receptor it was 11.4 µM; in assay [3], over 30 µM.
On to `CC(C)=CCOc1ccc(/C=C/C(=O)c2ccc(OCC=C(C)C)cc2OCC(=O)O)cc1` [SOFALCONE], for which the AC50 in assay [1] was 21 µM; at B2 bradykinin receptor, over 3 µM; in assay [2] it was over 30 µM; on Adenosine receptor A1 it was over 30 µM; at Thromboxane A2 receptor, 13 µM; in assay [3], over 30 µM.
In the case of `O=C(CCCN1CCC2(CC1)C(=O)NCN2c1ccccc1)c1ccc(F)cc1` [SPIPERONE], the concentration at half-maximal activity (AC50) was 2.8 µM in assay [1]; over 30 µM on B2 bradykinin receptor; 4.5 µM in assay [2]; over 30 µM at Adenosine receptor A1; over 30 µM at Thromboxane A2 receptor; over 30 µM in assay [3].
In the case of `CN(C)c1cc(NC(=O)CNC(C)(C)C)c(O)c2c1C[C@H]1C[C@H]3[C@H](N(C)C)C(O)=C(C(N)=O)C(=O)[C@@]3(O)C(O)=C1C2=O` [TIGECYCLINE], the AC50 in assay [1] is over 30 µM; on B2 bradykinin receptor, over 30 µM; in assay [2], over 30 µM; at Adenosine receptor A1, over 30 µM; at Thromboxane A2 receptor, over 30 µM; in assay [3], 0.16 µM.
On to `OCCN1CCN(CC/C=C2/c3ccccc3Sc3ccc(Cl)cc32)CC1` [ZUCLOPENTHIXOL], for which the AC50 (in assay [1]; at B2 bradykinin receptor; in assay [2]; at Adenosine receptor A1; at Thromboxane A2 receptor; in assay [3]) was over 10 µM each time.

Usually AC50 stands for the concentration at which the activity in the assay is half-maximal. High values mean activity only at high concentration, low ones activity at low concentration.
